From BindingDB's records for patent US20250136608 (Cgenetech (Suzhou, China) Co., 2025) come the findings set out here.

The target of assay [1] is Tyrosine-protein kinase JAK2 (Homo sapiens, UniProt O60674). The experiment in a line: JAK2 Kinase Inhibitory Activity Assay.
The target in assay [2] is T1, Tyrosine-protein kinase JAK3 (Homo sapiens, UniProt P52333).
T1 sequence (P52333 whole entry): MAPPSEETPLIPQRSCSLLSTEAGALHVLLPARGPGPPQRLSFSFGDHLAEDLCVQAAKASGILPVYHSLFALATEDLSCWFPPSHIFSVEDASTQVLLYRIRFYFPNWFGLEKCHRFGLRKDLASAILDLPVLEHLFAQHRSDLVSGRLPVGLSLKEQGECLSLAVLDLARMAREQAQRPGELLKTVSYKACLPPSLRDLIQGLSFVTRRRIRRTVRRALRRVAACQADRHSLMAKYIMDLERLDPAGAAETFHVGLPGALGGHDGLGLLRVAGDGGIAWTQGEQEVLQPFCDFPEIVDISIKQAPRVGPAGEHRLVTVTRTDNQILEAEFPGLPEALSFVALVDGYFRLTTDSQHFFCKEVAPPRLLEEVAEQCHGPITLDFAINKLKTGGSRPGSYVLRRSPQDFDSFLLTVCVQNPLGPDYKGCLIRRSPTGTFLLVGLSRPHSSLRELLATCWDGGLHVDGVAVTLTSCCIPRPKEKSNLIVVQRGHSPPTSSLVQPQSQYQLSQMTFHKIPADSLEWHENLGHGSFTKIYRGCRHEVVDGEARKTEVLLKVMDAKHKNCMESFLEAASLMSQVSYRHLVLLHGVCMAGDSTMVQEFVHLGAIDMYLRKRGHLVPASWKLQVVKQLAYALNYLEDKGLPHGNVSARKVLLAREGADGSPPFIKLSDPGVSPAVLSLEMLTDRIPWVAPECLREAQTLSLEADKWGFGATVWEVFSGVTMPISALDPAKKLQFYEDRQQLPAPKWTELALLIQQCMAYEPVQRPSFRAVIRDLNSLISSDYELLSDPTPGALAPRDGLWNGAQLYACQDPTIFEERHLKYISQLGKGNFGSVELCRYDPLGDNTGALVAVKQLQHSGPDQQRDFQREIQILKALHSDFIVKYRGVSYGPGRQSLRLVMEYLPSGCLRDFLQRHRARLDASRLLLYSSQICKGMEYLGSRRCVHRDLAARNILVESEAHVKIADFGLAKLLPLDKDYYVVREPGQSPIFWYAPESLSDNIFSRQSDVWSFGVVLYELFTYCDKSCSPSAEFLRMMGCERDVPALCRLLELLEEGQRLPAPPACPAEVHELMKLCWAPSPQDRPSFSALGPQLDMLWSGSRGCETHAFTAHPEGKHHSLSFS
As to the kind of experiment: JAK3 Kinase Inhibitory Activity Assay.

Each structure is given as a SMILES string.

Chain of Tyrosine-protein kinase JAK2 (O60674 whole entry): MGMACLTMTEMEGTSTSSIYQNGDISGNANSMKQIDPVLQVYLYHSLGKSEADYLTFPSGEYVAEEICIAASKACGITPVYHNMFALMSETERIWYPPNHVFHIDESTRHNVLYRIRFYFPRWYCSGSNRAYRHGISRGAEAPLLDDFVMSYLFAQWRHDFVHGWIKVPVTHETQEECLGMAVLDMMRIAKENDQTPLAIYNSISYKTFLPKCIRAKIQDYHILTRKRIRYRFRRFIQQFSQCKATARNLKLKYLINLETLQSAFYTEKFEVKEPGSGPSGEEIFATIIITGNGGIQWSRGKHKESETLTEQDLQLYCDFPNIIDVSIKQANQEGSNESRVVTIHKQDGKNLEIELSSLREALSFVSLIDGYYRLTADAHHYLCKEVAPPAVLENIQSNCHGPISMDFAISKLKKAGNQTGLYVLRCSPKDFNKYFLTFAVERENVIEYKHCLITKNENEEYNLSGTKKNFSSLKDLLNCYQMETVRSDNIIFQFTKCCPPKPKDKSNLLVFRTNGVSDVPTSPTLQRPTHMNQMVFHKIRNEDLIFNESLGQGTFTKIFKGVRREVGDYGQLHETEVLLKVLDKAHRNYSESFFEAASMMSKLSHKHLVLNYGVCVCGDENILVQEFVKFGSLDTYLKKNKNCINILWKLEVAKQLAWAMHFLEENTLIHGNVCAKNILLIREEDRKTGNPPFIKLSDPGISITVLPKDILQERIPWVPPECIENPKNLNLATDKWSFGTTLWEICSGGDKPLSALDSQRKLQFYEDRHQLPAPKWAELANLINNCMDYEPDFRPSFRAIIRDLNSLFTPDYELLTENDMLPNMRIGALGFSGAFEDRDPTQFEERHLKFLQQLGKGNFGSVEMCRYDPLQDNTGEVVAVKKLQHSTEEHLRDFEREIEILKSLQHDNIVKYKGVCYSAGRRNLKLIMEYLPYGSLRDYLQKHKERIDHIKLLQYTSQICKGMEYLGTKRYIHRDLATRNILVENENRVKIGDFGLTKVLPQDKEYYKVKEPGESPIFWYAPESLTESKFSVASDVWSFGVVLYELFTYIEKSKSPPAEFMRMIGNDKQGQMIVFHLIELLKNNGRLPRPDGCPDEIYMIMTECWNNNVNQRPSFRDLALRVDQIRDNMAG

As usually defined, the IC50 is the concentration that gives 50% inhibition. On to `N#CCC1(n2cc(-c3ncnc4[nH]ccc34)cn2)CCC(F)(F)CC1` [US20250136608, Compound 1], for which the IC50 in assay [1] was 0.0028 µM; in assay [2], 0.241 µM.
